# Measured values published in paper PMC11123956, “Nobiletin Stimulates Adrenal Hormones and Modulates the Circadian Clock in Mice” (Nutrients, 2024).
# Experiments:
# PDE7B = target: T1, PDE7B (Homo sapiens, UniProt Q9NP56); test: PDE enzyme  assay, PDE7B; assay type: biochemical
# T1 construct: purchased Eurofins Panlabs Discovery Services Taiwan, Ltd. (contract assay); host or cells: insect Sf9 cells
# Description: Enzyme assays for various subtypes of PDE (Table 1 and Figure 4) were conducted by Eurofins Panlabs Discovery Services Taiwan, Ltd. (New Taipei City, Taiwan). In the assays, five or six concentrations of nobiletin over five or six orders of magnitude were examined in experiments conducted in duplicate to determine the IC50 (concentration of nobiletin exerting half-maximal inhibition of control-specific activity). IC50 values were determined by nonlinear least squares regression analysis using MathIQTM (ID Business Solutions Ltd., Woking, UK). FAM-cAMP, FAM-cGMP (0.1 μM), and 100 μM [^3H]cGMP + cGMP were used for the substrate in the human recombinant insect Sf9 cells or Bovine retinal rod outer segments depending on the PDE subtype. The spectrofluorometric quantitation of fluorescein-AMP-IMAP, fluorescein-GMP-IMAP, or [^3H] guanosine was used depending on the PDE subtype. A known […] of each PDE was used as the positive control.
# [1] = tested on: PER2::LUC rhythm in peripheral tissues (kidney, liver, submandibular gland); test: In vivo bioluminescence imaging of peripheral PER2::LUC rhythm; parameters: species or system mice; conditions: 100 mg/kg i.p., 3 days
# Description: Male C57BL/6J mice (7 weeks old) were purchased from Charles River Japan (Kanagawa, Japan) and used for the serum hormone assay and RT-PCR. Male ICR mice were purchased from Tokyo Laboratory Animals Science Co., Ltd. (Tokyo, Japan), and female PERIOD2::LUCIFERASE (PER2::LUC) knock-in mice (ICR background) bred at Waseda University were used for blood glucose measurements and in vivo imaging assays, respectively. The mice were all housed under conditions of controlled temperature (23 °C ± 3 °C), humidity (50% ± 20%), and lighting (lights on from 07:00 to 19:00 at Taisho Pharmaceutical Co., Ltd. or from 08:00 to 20:00 at Waseda University). In the 24 h cycle, Zeitgeber time 0 (ZT0) was designated as the time when the lights were turned on, and ZT12 was designated as the time when the lights were turned off. All the mice were given access to food and tap water ad libitum, and nobiletin (10–100 mg/kg; purchased from FUJIFILM Wako Pure Chemical Corporation, Osaka, Japan) was administered by intraperitoneal (i.p.) injection in the vehicle (10 mL/kg body weight) containing 0.5% carboxymethyl cellulose (CMC). Rolipram (PDE4 inhibitor, FUJIFILM Wako Pure Chemical Corporation) and SR1078 (RORα/γ agonist, FUJIFILM Wako Pure Chemical Corporation) were also used for the experiment at 10 mg/kg in 0.5% CMC [12]. Mice were euthanized by rapid decapitation for whole blood samples.
# An in vivo imaging system (IVIS) (Caliper Life Sciences, Hopkinton, MA, USA) was used to monitor the PER2::LUC activity rhythm waveform in the peripheral tissues (kidney, liver, and submandibular gland) of the mice. A previously developed protocol and analytical method to monitor bioluminescence oscillations in peripheral tissues was used. Briefly, the mice were anesthetized with isoflurane (FUJIFILM Wako Pure Chemical Corporation, Osaka, Japan) and enriched with oxygen. Mice were anesthetized and injected subcutaneously on the back and near the neck with D-luciferin potassium salt (FUJIFILM Wako Pure Chemical Corporation, Osaka, Japan) at a dose of 15 mg/kg body weight. Images were taken using an IVIS, in the dorsal-up position for the kidney 8 min after injection and in the ventral-up position for the liver and the submandibular gland 10 min after injection. Images were obtained six times/day at 4 h intervals (ZT3, 7, 11, 15, 19, and 23) (Figure 1 and Figure 2). The mice were returned to their home cages after each imaging procedure and quickly recovered from isoflurane anesthesia. Bioluminescence emitted from the kidneys and liver was calculated automatically using Living Image 3.2 software (Caliper Life Sciences). The average photon/min value for the six time points from each day was designated as 100%, and the bioluminescence rhythm for the entire day was expressed as a percentage of each set of six time points for individual organs. The peak phase and amplitude of the normalized data were determined using a single cosinor procedure program (Acro.exe version 3.5 [14]).
# Figure 1 Experimental protocol for in vivo imaging. PER2::LUC female mice were treated with control (0.5% CMC) or nobiletin (100 mg/kg) at the same time points (ZT0, 4, 8, 12, 16, or 20) for three consecutive days, and then measured for peripheral clocks by in vivo whole-body imaging to examine phase–response curves (n = 4–5 in each).
# Figure 2 Time-of-day dependence of peripheral PER2::LUC changes in nobiletin injection. (A) Representative photo images of in vivo PER2::LUC bioluminescence in the kidney, liver, and submandibular gland (sab gla). (B) Waveforms of PER2::LUC rhythm in each tissue at each treatment time. (C,D) Phase–response curves or amplitude–response curves of nobiletin injections in peripheral PER2::LUC rhythm. […]
# T1 sequence (Q9NP56 whole entry): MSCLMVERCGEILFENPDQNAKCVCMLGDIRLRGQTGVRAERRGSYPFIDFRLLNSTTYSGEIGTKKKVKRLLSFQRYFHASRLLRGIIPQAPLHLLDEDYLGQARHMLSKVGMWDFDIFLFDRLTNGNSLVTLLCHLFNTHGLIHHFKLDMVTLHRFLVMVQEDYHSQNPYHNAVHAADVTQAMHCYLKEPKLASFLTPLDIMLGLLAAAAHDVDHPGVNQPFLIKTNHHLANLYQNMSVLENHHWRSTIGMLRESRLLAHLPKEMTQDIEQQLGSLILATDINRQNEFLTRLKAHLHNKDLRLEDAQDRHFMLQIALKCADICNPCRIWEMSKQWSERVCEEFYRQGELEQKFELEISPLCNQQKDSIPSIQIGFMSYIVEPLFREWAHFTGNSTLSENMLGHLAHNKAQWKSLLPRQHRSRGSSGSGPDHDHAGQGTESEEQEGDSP
compound,measurement,setting,value
COc1ccc(-c2cc(=O)c3c(OC)c(OC)c(OC)c(OC)c3o2)cc1OC [nobiletin],IC50,PDE7B,20.4 µM
same,amplitude of PER2::LUC rhythm vs control,"[1]; kidney, liver and submandibular gland (all three tissues), treatment at ZT16",increased
same,phase of PER2::LUC rhythm vs control,"[1]; kidney, administration at ZT4",phase advancement
same,amplitude of PER2::LUC rhythm vs control,"[1]; kidney, treatment at ZT0 or 4",decreased
same,phase of PER2::LUC rhythm vs control,"[1]; kidney, treatment at ZT20",phase delay
same,amplitude of PER2::LUC rhythm vs control,"[1]; liver, treatment at ZT12",decreased
same,phase of PER2::LUC rhythm vs control,"[1]; liver, treatment at ZT12",phase-advanced
same,phase of PER2::LUC rhythm vs control,"[1]; submandibular gland, administration at ZT4",phase advancement
